Assay results from patent US20150094229A1, “METHODS FOR THE SCREENING OF ANT[…]” (priority 2005, published 2015).
“Also recorded” adds a separate entry of the source. Where a SMILES comes first, the peptide text is derived from it. Where no end group is shown, it is not given here. [ ]: non-standard residue; d: D form.

Key:
[1] = target: T1, D-aspartate ligase (membrane or cytoplasmic extracts of E. faecium D359V8) (Enterococcus faecium, UniProt H8L902); test: D-aspartate ligase assay (in vitro addition of D-aspartate onto UDP-MurNac-pentapeptide); type: biochemical; conditions: 60 μg membrane or cytoplasmic extracts, 2 hours at 37° C.
T1 construct: membrane or cytoplasmic extracts (60 μg); endogenous in cells; host or cells: Enterococcus faecium D359V8, crude membrane and cytoplasmic extracts
Procedure: FIG. 2. […] Crude cytoplasmic extract (60 μg of protein) of E. faecium D359V8 were incubated for 2 h with UDP-MurNac-pentapeptide ([…]), D-[^14C]aspartic acid (0.11 mM, 55 mCi/mmol), ATP (20 mM) and MgCl2 (50 mM). D-[^14C]aspartic acid was separated from [^14C]UDP-MurNac-hexapeptide by descending paper chromatography. […] (+) presence of cytoplasmic extracts; (−) absence of crude extracts.
The assay was performed in a total volume of 25 μl containing Tris-Hcl (100 mM, pH 8.5), MgCl2 (50 mM), ATP (20 mM), D-[^14C]aspartic acid (0.11 mM, 55 mCi/mmol, Isobio, Fleurus, Belgium), UDP-MurNac-pentapeptide (0.15 mM) purified from S. aureus as previously described (Billot-Klein et al., 1997), and membrane or cytoplasmic extracts (60 μg). The reaction mixture was incubated 2 h at 37° C. and the reaction was stopped by boiling the samples for 3 min. […] The products of the reaction were also separated by reverse phase high-pressure liquid chromatography (rpHPLC) on a Hypersil C18 column ([…], 4.6×250 […], Interchrom, Montlugon, France) at a flow rate of 0.5 ml/min using isocratic elution (10 mM ammonium acetate, pH 5.0) and detected by the absorbance at 262 nm and liquid scintillation with a Radioflow Detector (LB508; Perkin Elmer, Courtaboeuf, France) coupled to the HPLC apparatus (L-62000A; Merck, Nogent-Sur-Marne, France). […]

Ldtfm [2] = test: Exchange assay with non-radioactive 2-amino and 2-hydroxy acid acceptors, products detected by mass spectrometry; type: biochemical, Enterococcus faecium; conditions: for Product Relative intensity (%): ionic current intensity (product/product + substrate), donor Ac2-L-Lys-D-Ala 0.3 mM, acceptor 0.3 mM, Ldtfm (3 g), 1 h at 37° C.; for use as acceptor substrate in the exchange reaction with Ac2-L-Lys-D-Ala as the donor: result in words
Source text: (§1) FIG. 9 (Ex FIG. 2). Identification and characterization of the L,D-transpeptidase of E. faecium M512. (A) Purification of the L,D-transpeptidase from an E. faecium M512 extract (lane 1) led to partial purification of a 48-kDa protein (lane 2). (B) The open reading frame for the 48-kDa protein was identified based on N-terminal sequencing ([…] [SEQ ID No 20], underlined) and similarity searches in the partial genome sequence of E. faecium. The partially purified 48-kDa protein corresponded to a proteolytic fragment since the sequence encoding its N-terminus was not preceded by a translation initiation codon. The upstream sequence contained a single likely translation initiation site (ACTTAAggag[…]atg [SEQ ID No 21]), consisting of an ATG initiation codon preceded by a putative ribosome binding site (lower case). The proteolytic cleavage removed the first 118 residues of the protein, including a cluster of hydrophobic residues at positions 13 to 28 (italicized), which could correspond to a membrane anchor. The C-terminus of Ldtfm (positions 340 to 466; bold) was related to a family of 341 sequences from eubacteria appearing in the Protein Families Database of Alignments under the pfam accession number PF03734. Ser439 and Cys442 (asterisks) are potential catalytic residues. (C) The portion of the open reading frame encoding the soluble protein partially purified form the E. faecium extract (positions 119 to 466) was cloned into E. coli and Ldtfm was purified with an overall yield of 3 mg per liter of culture. (D) The purified protein was active in an exchange reaction which assays for the capacity of the enzyme to catalyze cleavage of the L-Lys-D-Ala peptide bond of the model donor dipeptide substrate N^α,N^ε-diacetyl-L-lysyl-D-alanine (Ac2-L-Lys-D-Ala) and formation of a peptide bond between Ac2-L-Lys and D-[^14C]Ala. […] (F) The exchange assay was also performed with non-radioactive 2-amino and 2-hydroxy acids based on detection of the products by mass spectrometry and determination of their structure by tandem mass spectrometry, as exemplified by the fragmentation of Ac2-L-Lys-D-Met (m/z of 362.24). Loss of a C-terminal D-Met and of additional H2O led to ions at m/z 213.14 and 185.14, respectively. Ions at m/z 84.10 and 126.11 correspond to the immonium of L-Lys and its acetylated form, respectively.
To gain insight in the activity of Ldtfm, various 2-amino and 2-hydroxy acids were tested as potential acceptor substrates (Table 2) in an exchange reaction using the model dipeptide substrate Ac2-L-Lys-D-Ala as the donor (FIG. 9F). […] Hydrolysis of the C-terminal D-Ala of Ac2-L-Lys-D-Ala was not detected in the presence of a suitable acceptor substrate, indicating a biosynthetic function for Ldtfm, in contrast to the previously characterized L,D-carboxypeptidase involved in peptidoglycan recycling in E. coli (Templin et al., 1999).

[3] = tested on: L,D-transpeptidase of E. faecium M512 (Ldtfm); test: Standard radioactive exchange assay (Ac2-L-Lys-D-Ala and D-[14C]Ala); type: biochemical, Enterococcus faecium; conditions: for use as donor: formation of radioactive peptides with D-[14C]Ala as the acceptor: 3 μg Ldtfm, 60 min, donor 1-5 mM
Source text: as §1
Preferably, the L,D-transpeptidase activity is assessed by performing a standard exchange assay that is based on incubation of non-radioactive Ac2-L-Lys-D-Ala and D-[^14C]Ala and determination of Ac2-L-Lys-D[^14C]Ala formed by the L,D-transpeptidase catalytic activity, such as disclosed by Mainardi et al. (J. L. Mainardi et al., J. Biol. Chem. 277, 35801 (2002)) as well as in the examples herein.
In an illustrative embodiment of said standard exchange assay, a reaction mixture is provided, which reaction mixture contains (i) purified L,D-transpeptidase, (ii) Ac2-L-Lys-D-Ala, (iii) D-[^14C]Ala and (iv) optionally the candidate inhibitor compound. Then the enzyme reaction is performed until completion, generally during a time period of […], most preferably […], at a temperature range comprised between 36° C. and 38° C., advantageously between 36.5° C. and 37.5° C., most preferably at 37° C. Then, the enzyme reaction is stopped, for example by boiling the resulting reaction product mixture for a time period sufficient to inactivate the enzyme, such as for a period of time ranging from 3 min to 20 min, most preferably a period of time of about 15 min.
Then, the resulting reaction product mixture is centrifuged and a sample collected from the supernatant of centrifugation is analysed by chromatography, preferably by carrying out a reverse phase high-pressure liquid chromatography (rpHPLC), most preferably with isocratic elution.
Detection of the labeled reaction product resulting from the L,D-transpeptidase catalytic activity may be performed simultaneously with said chromatographic step. […]

E. faecium M512 = conditions: mutant E. faecium M512; cited from earlier work
Ldtfm [4] = test: In vitro transpeptidation (formation of dimers from monomeric muropeptides, mass spectrometry); type: biochemical, Enterococcus faecium; conditions: pool of three muropeptides, Ldtfm 3 μg, 2 h at 37° C.
Procedure: FIG. 10 (Ex FIG. 3). […] (A) Ldtfm was incubated with a pool of three monomeric muropeptides containing the disaccharide GlcNAc-MurNAc substituted by three different stem peptides. […] Tetrapeptide-iAsn, L-Ala-D-iGln-L-(M-D-iAsn)Lys-D-Ala; Tripeptide-iAsn, L-Ala-D-iGln-L-(M-D-iAsn)Lys; Tetrapeptide, L-Ala-D-iGln-L-Lys-D-Ala. (B) Fragmentation was performed on the muropeptide lactoyl dimer at m/z 1118.5 which was obtained by ammonium hydroxide treatment of the dimer with a monoisotopic mass of 1927.88. The treatment cleaved off the disaccharide and converted D-iAsn into D-iAsp. (C) Structure of the dimer and inferred fragmentation pattern. […]
To assay for in vitro transpeptidation, the L,D-transpeptidase (3 μg) was incubated with the momomeric muropeptides GlcNAc-MurNAc-L-Ala-D-iGln-L-(M-D-iAsn)Lys-D-Ala (25 nmoles), GlcNAc-MurNAc-L-Ala-D-iGln-L-(M-D-iAsn)Lys (5 nmoles) and GlcNAc-MurNAc-L-Ala-D-iGln-L-Lys-D-Ala (5 nmoles) for 2 h at 37° C. in 25 μl of 5 mM sodium phosphate buffer (pH 6.0). The reaction was stopped by boiling the sample for 3 min and the mixture was centrifuged (10,000×g, 2 min). […] For tandem mass spectrometry analysis, the remaining of the reaction mixture was treated with ammonium hydroxyde to cleave the ether link internal to MurNAc (Arbeloa et al., 2004). The conditions for fragmentation of the resulting lactoyl-peptides with N2 as the collision gas were as previously described (Arbeloa et al., 2004).

N[C@@H](CC(=O)O)C(=O)O [L-[^14C]aspartate]
formation of hexapeptide when D-[14C]aspartate is replaced [1]: No hexapeptide was formed

C[C@@H](O)C(=O)O [D-lactic acid]
Product Relative intensity (%) (Ldtfm [2]): 37%
use as acceptor substrate in the exchange reaction with Ac2-L-Lys-D-Ala as the donor (Ldtfm [2]): Formation of depsipeptides

CC1(C)S[C@@H]2[C@H](NC(=O)[C@H](N)c3ccccc3)C(=O)N2[C@H]1C(=O)O [ampicillin]
inhibition of Ldtfm in the exchange assay ([3]; Ldtfm 3 μg, Ac2-L-Lys-D-Ala 0.3 mM, D-[14C]Ala 0.15 mM, various concentration of ampicillin): absence of inhibition; also recorded: not inhibited
minimal inhibitory concentration (E. faecium M512): > 2000 µg/mL

UDP-MurNAc-L-Ala-D-iGlu-L-Lys-D-Ala [UDP-MurNAc-tetrapeptide]
use as donor: formation of radioactive peptides with D-[14C]Ala as the acceptor [3]: used as donors

N^α,N^ε-diacetyl-L-lysine-D-alanyl-D-alanine [Ac2-L-Lys-D-Ala-D-Ala]
use as donor: formation of radioactive peptides with D-[14C]Ala as the acceptor [3]: not detected

O=C(O)C[C@@H](O)C(=O)O [D-malic acid]
Product Relative intensity (%) (Ldtfm [2]): 10%
use as acceptor substrate in the exchange reaction with Ac2-L-Lys-D-Ala as the donor (Ldtfm [2]): Formation of depsipeptides

GlcNAc-MurNAc-L-Ala-D-iGlu-L-(N^ε-D-iAsn)Lys-D-Ala-D-Ala [GlcNAc-MurNAc-pentapeptide-iAsn]
use as donor: formation of radioactive peptides with D-[14C]Ala as the acceptor [3]: not detected

L-Ala-D-iGlu-L-Lys-D-Ala-D-Ala [pentapeptide]
use as donor: formation of radioactive peptides with D-[14C]Ala as the acceptor [3]: not detected

GlcNAc-MurNAc-L-Ala-D-iGln-L-(M-D-iAsn)Lys-D-Ala [tetrapeptide-iAsn]
use as donor in formation of dimers (Ldtfm [4]): formation of dimers

L-Ala-D-iGlu-L-Lys-D-Ala (A[diGlu]K[dA]) [tetrapeptide]
use as donor: formation of radioactive peptides with D-[14C]Ala as the acceptor [3]: used as donors

GlcNAc-MurNAc-L-Ala-D-iGln-L-Lys-D-Ala
use as acceptor in formation of dimers (Ldtfm [4]): not used as an acceptor
use as donor in formation of dimers (Ldtfm [4]): formation of dimers

CC(=O)NCCCC[C@H](NC(C)=O)C(=O)N[C@H](C)C(=O)O [Ac2-L-Lys-D-Ala, N^α,N^ε-diacetyl-L-lysyl-D-alanine] (Ac-Lys(Ac)-[dA]-OH)
use as donor: formation of radioactive peptides with D-[14C]Ala as the acceptor [3]: used as donors

CC(=O)N[C@H]1[C@@H](OP(=O)(O)OP(=O)(O)OC[C@H]2O[C@@H](n3ccc(=O)[nH]c3=O)[C@H](O)[C@@H]2O)O[C@H](CO)[C@@H](O)[C@@H]1O[C@H](C)C(=O)N[C@@H](C)C(=O)N[C@H](CCC(=O)N[C@@H](CCCCN)C(=O)N[C@H](C)C(=O)N[C@H](C)C(=O)O)C(=O)O [UDP-MurNAc-pentapeptide, UDP-N-acetylmuramyl-L-Ala-D-iGlu-L-Lys-D-Ala-D-Ala]
use as donor: formation of radioactive peptides with D-[14C]Ala as the acceptor [3]: not detected

GlcNAc-MurNAc-L-Ala-D-iGlu-L-(N^ε-D-iAsn)Lys-D-Ala [GlcNAc-MurNAc-tetrapeptide-iAsn]
use as donor: formation of radioactive peptides with D-[14C]Ala as the acceptor [3]: used as donors

NCC(=O)O [Glycine]
Product Relative intensity (%) (Ldtfm [2]): 15%
